Results on one compound are retold here after patent publication US9526717B2, “Composition for treating immune diseases containing daurinol compound as active ingredient” (THE CATHOLIC UNIVERSITY OF KOREA INDUSTRY-ACADEMIC …, priority 2013, dated 2016).

Experiment [1] concerns bone marrow macrophages (BMM). Description: Inhibitory effect on the differentiation of osteoclasts (TRAP+ multinucleate cells). Type of experiment: cell-based, mouse. The conditions noted are these: RANKL 50 ng/mL, M-CSF 30 ng/mL, 4 days. The text has this:
ICR mice (6 to 9 week-old male) were subjected to cervical dislocation and disinfected with 70% ethanol. The skin in the tibia area was cut off and the muscles attached thereto were detached. The distal center of tibia was cut off and tibia was ablated by dislocating patella. Both ends of the bone were slightly cut off and a 25G injection needle was indwelled therein on one end and α-MEM was flowed thereon and bone marrow cells were thereby collected into a test tube. After centrifugation, the resultant was suspended in α-MEM and red blood cells were removed by adding two volumes of Gey's solution. After centrifugation, the resultant was resuspended in α-MEM including 10% FBS and cultured to be used.
The cultured bone marrow cells were cultured overnight with macrophage colony stimulating factor (“M-CSF”, hereinafter) (10 ng/mL), and the suspension cells were cultured further with M-CSF (30 ng/mL) for 3 days, and thereby bone marrow macrophages (“BMM”) were formed. The thus-formed BMM was collected and cultured in 1×10^5 cells/well in the presence of receptor activator of NF-κB ligand (RANKL) (50 ng/mL), which is an osteoclast differentiation factor, and M-CSF (30 ng/mL) for 4 days. […] The resultant was observed under a microscope and TRAP+ cells having three or more nuclei were determined as multinucleate osteoclasts.

Experiment [2] deals with splenocytes of an animal model with obesity-derived rheumatoid arthritis. Description: IL-17 ELISA in splenocytes of animal model with obesity arthritis. In kind it is cell-based. The conditions noted are these: daurinol 1 μM and 5 μM, anti-CD3 0.5 μg/mL. As for the experimental part: The splenocytes of an animal model with obesity-derived rheumatoid arthritis were treated with daurinol (1 μM and 5 μM) and anti-CD3 (0.5 μg/mL), and IL-17, the inflammatory cytokine expressed thereafter, was evaluated via ELISA assay.
A general note: In an ELISA, binding on a coated surface is turned into a signal by an enzyme label.

For experiment [3], the system named is regulatory T lymphocytes (Treg). Description: Regulatory T cells (Treg) by flow cytometer in allogenic reaction. In kind it is cell-based, mouse. The conditions noted are these: control not treated 7.27%. As for the experimental part: For the confirmation of the effect of the daurinol compound on the inhibition of T cell proliferation and the expression amount of IL-17, the CD4+ T cells (2×10^5 cells) of a normal recipient (Balb/c, responder), and the T cell-removed splenocytes (2×10^5 cells) derived from a recipient (homogenic) or the splenocytes (2×10^5 cells) derived from a donor (C57BL/6, stimulator, allogenic) exposed to irradiation were added to each well of a 96-well round bottom plate, mixed, and cultured in vitro. In particular, the T cell proliferation and the secretion of IL-17 when an allogenic reaction was untreated with daurinol or treated with daurinol at 0.5 μM, 2 μM, 10 μM, and 20 μM, respectively, were observed.
In this regard, for the confirmation of the effect of the daurinol compound according to the present invention on the activity of regulatory T lymphocytes (Treg), the present inventors analyzed the T cells isolated in Example <4-2> by a flow cytometer. That is, the T cells isolated in Example <4-2> were collected, washed with the FACs buffer, and reacted at 4° C. for the blocking of nonspecific binding for 5 minutes, and washed with the FACs buffer. […] Upon staining of the cells, the cells were washed with buffer and analyzed using the fluorescent-activated cell sorter (FACs).

The test system of experiment [4] is animal model with inflammatory bowel disease. Put plainly: Expression of inflammatory cytokines in the tissues of the large intestine of IBD model. As to conditions: daurinol treated. Type of experiment: in vivo, mouse. The source says:
For the confirmation of the effect of the daurinol compound of the present invention on the treatment of inflammatory bowel disease, the present inventors first constructed an animal model with induced inflammatory bowel disease. For the experimental model, C57BL/6(H-2kb) mice were used. For the construction of an animal model with induced inflammatory bowel disease, the mice were fed with 3.5% dextran sulfate sodium (DSS) and water for a week, thereby preparing an animal model with induced inflammatory bowel disease. The present inventors divided the experimental animals into a normal control group, a group of an animal model with induced inflammatory bowel disease, and a group of an animal model with induced inflammatory bowel disease treated with daurinol or a TNF-α inhibitor, and the group treated with daurinol was administered orally and intrarectally with daurinol (20 mg/kg) from the 4th day after the induction with the disease.

The next experiment deals with VEGF. Description: VEGF expression in human large intestine cell line HT-29. In kind it is cell-based.
In experiment [5] the test system is mouse with induced inflammatory bowel disease (IBD). Put plainly: Inflammatory cytokines in the serum of IBD animal model (ELISA). In kind it is in vivo. The conditions noted are these: IBD mice treated with daurinol. The text has this: For the confirmation of the effect of the daurinol compound of the present invention on the treatment of inflammatory bowel disease, the present inventors first constructed an animal model with induced inflammatory bowel disease. For the experimental model, C57BL/6(H-2kb) mice were used. For the construction of an animal model with induced inflammatory bowel disease, the mice were fed with 3.5% dextran sulfate sodium (DSS) and water for a week, thereby preparing an animal model with induced inflammatory bowel disease.
The present inventors divided the experimental animals into a normal control group, a group of an animal model with induced inflammatory bowel disease, and a group of an animal model with induced inflammatory bowel disease treated with daurinol or a TNF-α inhibitor, and the group treated with daurinol was administered orally and intrarectally with daurinol (20 mg/kg) from the 4th day after the induction with the disease.
Sera were isolated from a mouse with induced inflammatory bowel disease (IBD), and mice treated with daurinol and TNF-α inhibitor, respectively. The levels of IL-17, IFNγ, IL-6, and the like, which are inflammatory cytokines, in the isolated sera were measured by ELISA assay.

Experiment [6] relates to splenocytes of an animal model with lupus. Put plainly: IgG antibody formation in splenocytes of animal model with lupus (ELISA). In kind it is cell-based. As to conditions: daurinol 1 μM and 5 μM, LPS 100 ng/mL, three days. As for the experimental part: First, regarding the effect of controlling the autoantibody formation, the splenocytes of an animal model with lupus were treated with daurinol (1 μM and 5 μM) and LPS (100 ng/mL) for three days and the levels of IgG antibodies expressed thereof were evaluated by ELISA assay.

The subject of experiment [7] is splenocytes of the animal model with lupus. Put plainly: IL-17 level in splenocytes of animal model with lupus (ELISA). Type of experiment: cell-based. As to conditions: daurinol 1 μM and 5 μM, anti-CD3 0.5 μg/mL or LPS 100 ng/mL, three days. As for the experimental part: Additionally, for the confirmation of the effect of controlling the formation of inflammatory cytokines, the splenocytes of the animal model with lupus were treated with daurinol (1 μM and 5 μM) and anti-CD3 (0.5 μg/mL) or LPS (100 ng/mL) for three days and the levels of IL-17 and TNF-α inflammatory cytokines were evaluated by ELISA assay.

For `COc1cc2c(-c3ccc4c(c3)OCO4)c3c(cc2cc1O)COC3=O` [daurinol], in experiment [1] (daurinol 2 μM), the “differentiation of osteoclasts reduced by (number of TRAP+ multinucleate cells)” value is on record as at least 60%. In addition, the “differentiation of osteoclasts (number of TRAP+ multinucleate cells)” value in experiment [1] (daurinol 10 μM) is on record as “no differentiation of osteoclasts was observed”. The “expression of IL-17 (ELISA)” value in experiment [2] is recorded as “inhibits the expression of IL-17 in a dose-dependent manner”. The Treg cells in experiment [3] (daurinol 1 μM) is on record as 9.18%. In experiment [3] (daurinol 5 μM), this compound yielded a Treg cells of 16.6%. In experiment [4], the “expression of IL-1b in the tissues of the large intestine” value is recorded as “significantly inhibit”, the “expression of IL-6 in the tissues of the large intestine” value is reported as “significantly inhibit”, the “expression of IL-8 in the tissues of the large intestine” value is on record as “significantly inhibit” and the “expression of IL-17 in the tissues of the large intestine” value is recorded as “significantly inhibit”. The “expression of TNF-α in the tissues of the large intestine” value in experiment [4] is recorded as “significantly inhibit”. In the experiment on VEGF, the “activity of VEGF, analysis in terms of inhibition (%)” value is reported as “significantly inhibits the activity of VEGF”; the “inhibitory effect against the VEGF expression, compared to comparators” value is “greater inhibitory effect against the VEGF expression compared to those of TNF-α inhibitor and merformin”. Also, in experiment [5], the “level of IFNγ in serum (ELISA)” value is “significantly inhibits”, the “level of IL-6 in serum (ELISA)” value is listed as “significantly inhibits” and the “level of IL-17 in serum (ELISA)” value is listed as “significantly inhibits”. For the same compound, the “formation of IgG antibodies (ELISA)” value in experiment [6] is on record as “inhibited the formation of IgG antibodies in a dose-dependent manner”. The “expression of IL-17 (ELISA)” value in experiment [7] is “inhibited the expression of IL-17 and TNF-α in a dose-dependent manner”.
